Results: PMC8424644, “Thermodynamic Stability and Speciation of Ga(III) and Zr(IV) Complexes with High-Denticity Hydroxamate Chelators” (Inorganic Chemistry, 2021)
Marks after values point to notes of the source that are not given here.

How the values were obtained:
Format in all cases: physicochemical
[1] = pFe calculation (ligand sequestering ability); conditions: pH=7.4, cL=10 μM, metal 1 μM
Description: Despite a large variety of PET chelators synthesized and tested in order to provide strong coordination of Ga(III) and Zr(IV) in vivo, until now it is has been hard to avoid the release of these metal ions in the body. Here we report two new Ga(III) and Zr(IV) hydroxamate chelators, designed to achieve an efficient sequestering of these metal ions but also to understand how the cyclization and the introduction of an additional hydroxamate group influences the stability of Zr(IV) complexes. Therefore, it is important to evaluate and compare the Ga(III)- and Zr(IV)-sequestering abilities of […] and […] with those of other chelators. […] page 15: 100 100 [ZrL4]+ [ZrL3]+ [ZrL4H ] -1 80 [ZrL3H ] 80 2+ -1 [ZrHL4] […] Experimental section. Ligands' sequestering ability Table S3. pFe values with various synthetic and biological chelators a Ligand pFe Chelating groups and ligands geometry […] 24.3 3 hydroxamate groups in a cyclic arrangement […] 23.3 4 hydroxamate groups in a linear arrangement […] 26.9 3 hydroxamate groups in a cyclic arrangement […] 23.61 3 hydroxamate groups in a linear arrangement […] DFOE 27.73 3 hydroxamate groups in a cyclic arrangement […] protonation and stability constants given in original publications; the hydrolysis constants of Fe(III) ions were taken from the literature14 and are given in the experimental section 15 (also on this page, place not known: […]

[2] = Fe(III) complex stability, potentiometric titrations; conditions: 25 °C, I = 0.1 M NaClO4
Description: (§1) To evaluate the thermodynamic stability of Ga(III) and Zr(IV) complexes of the investigated ligands, the binding properties and speciation of Fe(III) complexes have first been determined (all the details are given in the Supporting Information). There are several reasons for this protocol. First, (i) the electron configuration of Ga(III) (d^10) and Zr(IV) (d^0) hinders the attainment of spectral information for most of the complexes. Furthermore, (ii) both metal ions are highly acidic and they are readily hydrolyzed over almost the entire pH range. In addition, (iii) the high charge to size ratio of the Zr(IV) ion implies the formation of complexes with an exceptional thermodynamic stability (already at very low pH); as a consequence, the stability constants cannot be directly determined using standard potentiometric titrations. Thus, the thermodynamic stability constants of the Fe(III)-H3L1 and Fe(III)-H4L2 systems were first determined (using a combination of potentiometric and pH-dependent UV–vis titrations), followed by Fe(III)–Ga(III) and Fe(III)–Zr(IV) metal–metal competition experiments. […]
Accordingly, the following speciation could be drawn from the spectra collected: the complexes formation starts at pH<1 involving two hydroxamate groups coordinated to Fe(III) ion, while the three hydroxamate complexes are observed over pH range 3-9. Above pH 9, the absorbance begins to […]

[3] = Fe(III) complex stability, pH-dependent UV–vis titrations
Description: as §1

SMILES	pFe [1]	log β [FeHL] [2]	log β [FeHL] ([3]; pH-dependent UV–vis titrations, 25 °C, I = 0.1 M NaClO4)	log β [FeL] [2]	pK of [FeHL] ([FeHL1]+ to [FeL1]) ([3]; from UV–vis log β values (supplement))
N[C@H]1CCCCNC(=O)CCCN(O)C(=O)CCCNC(=O)CCCN(O)C(=O)CCCNC(=O)CCCN(O)C(=O)CCCNC(=O)CCCN(O)C(=O)CCCNC1=O [H4L2, (S)-43-Amino-6,16,26,36-tetrahydroxy-1,6,11,16,21,26,31,36,41-nonaazacycloheptatetracontane-2,7,12,17,22,27,32,37,42-nonaone]	23.3	36.82(6) ^d	36.96(7) ^e		
O=C1CCCN(O)C(=O)CCCNC(=O)CCCN(O)C(=O)CCCNC(=O)CCCN(O)C(=O)CCCN1 [H3L1, 1,11,21-Trihydroxy-1,6,11,16,21,26-hexaazacyclotriacontane-2,7,12,17,22,27-hexaone]	24.3			28.7(1) ^d	3.21
